Source: publication PMC4959752, “Pharmacokinetics in Wistar Rats of 5-[(4-Carboxybutanoyl)Amino]-2-Hydroxybenzoic Acid: A Novel Synthetic Derivative of 5-Aminosalicylic Acid (5-ASA) with Possible Anti-Inflammatory Activity” (PLoS ONE, 2016)

What was measured:
[1] = Stability of C2 in rat plasma samples; assay type: in vitro ADME; settings: for Difference respect the nominal concentration (%): rat plasma deproteinized samples
Experimental: The stability of C2 in plasma was evaluated using the QC samples at two concentrations by triplicate ([…]); these samples were stored at 25°C for 12, 24 and 36 h (short-term stability) and subjected to three freeze-thaw cycles (–20°C to 25°C). The post-preparative storage was evaluated by analyzing the ready-to-inject samples that had been refrigerated 4°C for 12, 24 and 36 h. The concentration of C2 after each storage period was related to the initial concentration of freshly prepared and immediately processed samples [40, 41].

[2] = tested on: MPO; parameters: method as in ref 34 = [34]; 34 Gutiérrez Sánchez M , Rosales-Hernández MC , Padilla-Martínez II , Correa-Basurto J , Mendieta-Wejebe JE . In vivo evaluation of two 5-aminosalicylic acid derivatives considered as potential therap; settings: model of inflammation in the mouse ear; cited from earlier work

O=C(O)CCCC(=O)Nc1ccc(O)c(C(=O)O)c1 [C2, 5-[(4-carboxybutanoyl)amino]-2-hydroxybenzoic acid]
Difference respect the nominal concentration (%) ([1]; Refrigeration (4°C), 12 h, 1 μg/mL): 0.8% | Difference respect the nominal concentration (%) ([1]; Refrigeration (4°C), 12 h, 2.5 μg/mL): 1.5% | Difference respect the nominal concentration (%) ([1]; Refrigeration (4°C), 12 h, 25 μg/mL): 0.1% | Difference respect the nominal concentration (%) ([1]; Refrigeration (4°C), 12 h, 100 μg/mL): 0.5% | Difference respect the nominal concentration (%) ([1]; Refrigeration (4°C), 24 h, 1 μg/mL): 2.2% | Difference respect the nominal concentration (%) ([1]; Refrigeration (4°C), 24 h, 2.5 μg/mL): 2.6% | Difference respect the nominal concentration (%) ([1]; Refrigeration (4°C), 24 h, 25 μg/mL): 3.1% | Difference respect the nominal concentration (%) ([1]; Refrigeration (4°C), 24 h, 100 μg/mL): 0.4% | Difference respect the nominal concentration (%) ([1]; Refrigeration (4°C), 36 h, 1 μg/mL): 5.3% | Difference respect the nominal concentration (%) ([1]; Refrigeration (4°C), 36 h, 2.5 μg/mL): 2.9% | Difference respect the nominal concentration (%) ([1]; Refrigeration (4°C), 36 h, 25 μg/mL): 4.3% | Difference respect the nominal concentration (%) ([1]; Refrigeration (4°C), 36 h, 100 μg/mL): 0.6% | Difference respect the nominal concentration (%) ([1]; Room Temperature (25°C), 12 h, 1 μg/mL): 1.4% | Difference respect the nominal concentration (%) ([1]; Room Temperature (25°C), 12 h, 2.5 μg/mL): 1.0% | Difference respect the nominal concentration (%) ([1]; Room Temperature (25°C), 12 h, 25 μg/mL): 0.3% | Difference respect the nominal concentration (%) ([1]; Room Temperature (25°C), 12 h, 100 μg/mL): 0.3% | Difference respect the nominal concentration (%) ([1]; Room Temperature (25°C), 24 h, 1 μg/mL): 2.1% | Difference respect the nominal concentration (%) ([1]; Room Temperature (25°C), 24 h, 2.5 μg/mL): 2.3% | Difference respect the nominal concentration (%) ([1]; Room Temperature (25°C), 24 h, 25 μg/mL): 2.9% | Difference respect the nominal concentration (%) ([1]; Room Temperature (25°C), 24 h, 100 μg/mL): 0.7% | Difference respect the nominal concentration (%) ([1]; Room Temperature (25°C), 36 h, 1 μg/mL): 5.8% | Difference respect the nominal concentration (%) ([1]; Room Temperature (25°C), 36 h, 2.5 μg/mL): 2.6% | Difference respect the nominal concentration (%) ([1]; Room Temperature (25°C), 36 h, 25 μg/mL): 3.7% | Difference respect the nominal concentration (%) ([1]; Room Temperature (25°C), 36 h, 100 μg/mL): 1.7% | Difference respect the nominal concentration (%) ([1]; freeze–thaw (–20 to 25°C), Cycle 2 (24 h), 1 μg/mL): 2.7% | Difference respect the nominal concentration (%) ([1]; freeze–thaw (–20 to 25°C), Cycle 2 (24 h), 2.5 μg/mL): 2.9% | Difference respect the nominal concentration (%) ([1]; freeze–thaw (–20 to 25°C), Cycle 2 (24 h), 25 μg/mL): 1.7% | Difference respect the nominal concentration (%) ([1]; freeze–thaw (–20 to 25°C), Cycle 2 (24 h), 100 μg/mL): 0.5% | Difference respect the nominal concentration (%) ([1]; freeze–thaw (–20 to 25°C), Cycle 3 (36 h), 1 μg/mL): 6.0% | Difference respect the nominal concentration (%) ([1]; freeze–thaw (–20 to 25°C), Cycle 3 (36 h), 2.5 μg/mL): 5.1% | Difference respect the nominal concentration (%) ([1]; freeze–thaw (–20 to 25°C), Cycle 3 (36 h), 25 μg/mL): 1.7% | Difference respect the nominal concentration (%) ([1]; freeze–thaw (–20 to 25°C), Cycle 3 (36 h), 100 μg/mL): 0.6% | Difference respect the nominal concentration (%) ([1]; freeze–thaw (–20 to 25°C), cycle 1 (12 h), 1 μg/mL): 1.8% | Difference respect the nominal concentration (%) ([1]; freeze–thaw (–20 to 25°C), cycle 1 (12 h), 2.5 μg/mL): 1.8% | Difference respect the nominal concentration (%) ([1]; freeze–thaw (–20 to 25°C), cycle 1 (12 h), 25 μg/mL): 2.0% | Difference respect the nominal concentration (%) ([1]; freeze–thaw (–20 to 25°C), cycle 1 (12 h), 100 μg/mL): 0.5% | stability in rat plasma ([1]; stored at 4°C and 25°C for 36 h): stable | effect on catalytic activity of MPO [2]: inhibited the catalytic activity of MPO
